For one test, the target named is hCA I (Homo sapiens, UniProt P00915). The test can be described thus: Stopped-flow CA catalysed CO2 hydration inhibition assay, hCA I. The test is classed as biochemical.
A further test deals with hCA II (Homo sapiens, UniProt P00918). The test can be described thus: Stopped-flow CA catalysed CO2 hydration inhibition assay, hCA II. The test is classed as biochemical.
The target in a further test is hCA IX (Homo sapiens, UniProt Q16790). The test can be described thus: biochemical.
In a further test the target is hCA XII (Homo sapiens, UniProt O43570). Nature of the test: Stopped-flow CA catalysed CO2 hydration inhibition assay, hCA XII. The test is classed as biochemical.

The results in this text go back to paper PMC11003494 (Journal of Enzyme Inhibition and Medicinal Chemistry, 2023).

Each structure is given as a SMILES string. Bounds are passed on as bounds.

hCA XII, sequence (O43570 30-289 limits assumed): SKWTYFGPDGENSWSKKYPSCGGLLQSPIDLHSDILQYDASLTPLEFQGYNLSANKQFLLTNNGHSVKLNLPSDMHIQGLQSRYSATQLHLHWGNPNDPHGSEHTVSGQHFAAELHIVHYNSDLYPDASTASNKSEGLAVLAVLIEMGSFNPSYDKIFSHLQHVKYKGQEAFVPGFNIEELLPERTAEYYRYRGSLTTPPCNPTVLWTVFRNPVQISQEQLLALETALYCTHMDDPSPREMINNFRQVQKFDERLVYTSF
hCA I, sequence (P00915 whole entry): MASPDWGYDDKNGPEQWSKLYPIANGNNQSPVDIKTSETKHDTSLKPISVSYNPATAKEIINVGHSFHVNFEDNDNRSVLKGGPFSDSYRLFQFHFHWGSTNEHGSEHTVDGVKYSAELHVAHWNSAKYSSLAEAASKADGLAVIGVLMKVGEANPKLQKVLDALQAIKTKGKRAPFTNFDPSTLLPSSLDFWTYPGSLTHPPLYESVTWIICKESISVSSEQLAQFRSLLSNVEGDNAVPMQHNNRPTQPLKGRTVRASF

As a reminder, the Ki is a dissociation constant, usually derived from enzyme kinetics or from competition with a known ligand. For `COC(=O)Cc1c(C)c2ccc(OCC(=O)c3ccc(C)cc3)c(C)c2oc1=O` [EMAC10163a, Methyl 2‐{4,8‐dimethyl‐7‐[2‐(4‐methylphenyl)‐2‐oxoethoxy]‐2‐oxo‐2H‐chromen‐3‐yl}acetate], the inhibition constant (Ki) is over 100 µM at hCA I, over 100 µM at hCA II, 2.98 µM at hCA IX and 2.52 µM on hCA XII.

With `COC(=O)Cc1c(C)c2ccc(OCC(=O)c3ccc(OC)cc3)c(C)c2oc1=O` [EMAC10163b, Methyl 2-(7-(2-(4-methoxyphenyl)-2-oxoethoxy)-4,8-dimethyl-2-oxo-2H-chromen-3-yl)acetate], the Ki at hCA I was over 100 µM; at hCA II, over 100 µM; at hCA IX, 0.53 µM; at hCA XII, 0.47 µM.

In the case of `COC(=O)Cc1c(C)c2ccc(OCC(=O)c3ccc(Br)cc3)c(C)c2oc1=O` [EMAC10163c, Methyl 2-(7-(2-(4-bromophenyl)-2-oxoethoxy)-4,8-dimethyl-2-oxo-2H-chromen-3-yl)acetate], the Ki at hCA I is over 100 µM; on hCA II, over 100 µM; on hCA IX, 4.16 µM; at hCA XII, 5.43 µM.

As to `COC(=O)Cc1c(C)c2ccc(OCC(=O)c3ccc(F)cc3)c(C)c2oc1=O` [EMAC10163d, Methyl 2-(7-(2-(4-fluorophenyl)-2-oxoethoxy)-4,8-dimethyl-2-oxo-2H-chromen-3-yl)acetate], the inhibition constant (Ki) was over 100 µM at hCA I, over 100 µM on hCA II, 2.39 µM at hCA IX and 6.04 µM on hCA XII.

Regarding `COC(=O)Cc1c(C)c2ccc(OCC(=O)c3ccc([N+](=O)[O-])cc3)c(C)c2oc1=O` [EMAC10163e, Methyl 2-(4,8-dimethyl-7-(2-(4-nitrophenyl)-2-oxoethoxy)-2-oxo-2H-chromen-3-yl)acetate], the inhibitory constant (Ki) was over 100 µM on hCA I, over 100 µM on hCA II, 4.64 µM on hCA IX and 7.84 µM on hCA XII.

Regarding `COC(=O)Cc1c(C)c2ccc(OCC(=O)c3cccc([N+](=O)[O-])c3)c(C)c2oc1=O` [EMAC10163f, Methyl 2-(4,8-dimethyl-7-(2-(3-nitrophenyl)-2-oxoethoxy)-2-oxo-2H-chromen-3-yl)acetate], the Ki was over 100 µM on hCA I, over 100 µM on hCA II, over 100 µM on hCA IX and 7.82 µM on hCA XII.

As for `COC(=O)Cc1c(C)c2ccc(OCC(=O)c3ccc(-c4ccccc4)cc3)c(C)c2oc1=O` [EMAC10163g, Methyl 2-(7-(2-([1,1′-biphenyl]-4-yl)-2-oxoethoxy)-4,8-dimethyl-2-oxo-2H-chromen-3-yl)acetate], the Ki at hCA I is over 100 µM; on hCA II it was over 100 µM; at hCA IX, over 100 µM; at hCA XII, 8.88 µM.

In the case of `COC(=O)Cc1c(C)c2ccc(OCC(=O)c3ccc(F)cc3F)c(C)c2oc1=O` [EMAC10163h, Methyl 2-(7-(2-(2,4-difluorophenyl)-2-oxoethoxy)-4,8-dimethyl-2-oxo-2H-chromen-3-yl)acetate], the Ki on hCA I was over 100 µM; at hCA II, over 100 µM; at hCA IX it was 4.51 µM; on hCA XII it was 5.56 µM.

On to `COC(=O)Cc1c(C)c2ccc(OCC(=O)c3ccccc3)c(C)c2oc1=O` [EMAC10163i, Methyl 2-(4,8-dimethyl-2-oxo-7-(2-oxo-2-phenylethoxy)-2H-chromen-3-yl)acetate], for which the Ki at hCA I is over 100 µM; on hCA II it was over 100 µM; on hCA IX, over 100 µM; on hCA XII, 5.25 µM.

`COC(=O)Cc1c(C)c2ccc(OCC(=O)c3ccc(Cl)cc3)c(C)c2oc1=O` [EMAC10163j, Methyl 2-(7-(2-(4-chlorophenyl)-2-oxoethoxy)-4,8-dimethyl-2-oxo-2H-chromen-3-yl)acetate]: the inhibition constant (Ki) was over 100 µM on hCA I, over 100 µM on hCA II, over 100 µM on hCA IX and 2.41 µM at hCA XII.

In the case of `COC(=O)Cc1c(C)c2ccc(OCC(=O)c3cccc(OC)c3)c(C)c2oc1=O` [EMAC10163k, Methyl 2-(7-(2-(3-methoxyphenyl)-2-oxoethoxy)-4,8-dimethyl-2-oxo-2H-chromen-3-yl)acetate], the Ki at hCA I was over 100 µM; at hCA II, over 100 µM; on hCA IX, over 100 µM; at hCA XII, 4.86 µM.

With `Cc1ccc(-c2coc3c(C)c4oc(=O)c(CC(=O)O)c(C)c4cc23)cc1` [EMAC10164a, 2-(5,9-Dimethyl-7-oxo-3-(p-tolyl)-7H-furo[3,2-g]chromen-6-yl)acetic acid], the Ki on hCA I is over 100 µM; at hCA II, over 100 µM; at hCA IX, over 100 µM; on hCA XII, 4.09 µM.

Take `COc1ccc(-c2coc3c(C)c4oc(=O)c(CC(=O)O)c(C)c4cc23)cc1` [EMAC10164b, 2-(3-(4-Methoxyphenyl)-5,9-dimethyl-7-oxo-7H-furo[3,2-g]chromen-6-yl)acetic acid]: the inhibition constant Ki at hCA I was over 100 µM; at hCA II it was over 100 µM; on hCA IX it was over 100 µM; on hCA XII, 4.59 µM.

In the case of `Cc1c(CC(=O)O)c(=O)oc2c(C)c3occ(-c4ccc(Br)cc4)c3cc12` [EMAC10164c, 2-(3-(4-Bromophenyl)-5,9-dimethyl-7-oxo-7H-furo[3,2-g]chromen-6-yl)acetic acid], the Ki was over 100 µM at hCA I, over 100 µM on hCA II, over 100 µM at hCA IX and 4.44 µM on hCA XII.

Regarding `Cc1c(CC(=O)O)c(=O)oc2c(C)c3occ(-c4ccc(F)cc4)c3cc12` [EMAC10164d, 2-(3-(4-Fluorophenyl)-5,9-dimethyl-7-oxo-7H-furo[3,2-g]chromen-6-yl)acetic acid], the inhibition constant Ki was over 100 µM on hCA I, over 100 µM at hCA II, 0.46 µM on hCA IX and 0.8 µM at hCA XII.

Turning to `Cc1c(CC(=O)O)c(=O)oc2c(C)c3occ(-c4ccc(-c5ccccc5)cc4)c3cc12` [EMAC10164g, 2-(3-([1,1′-Biphenyl]-4-yl)-5,9-dimethyl-7-oxo-7H-furo[3,2-g]chromen-6-yl)acetic acid], the Ki was over 100 µM on hCA I, over 100 µM at hCA II, 0.71 µM at hCA IX and 0.82 µM on hCA XII.

With `Cc1c(CC(=O)O)c(=O)oc2c(C)c3occ(-c4ccc(F)cc4F)c3cc12` [EMAC10164h, 2-(3-(2,4-Difluorophenyl)-5,9-dimethyl-7-oxo-7H-furo[3,2-g]chromen-6-yl)acetic acid], the Ki at hCA I is over 100 µM; at hCA II, over 100 µM; at hCA IX, 4.27 µM; at hCA XII, 6.37 µM.

`Cc1c(CC(=O)O)c(=O)oc2c(C)c3occ(-c4ccccc4)c3cc12` [EMAC10164i, 2-(5,9-Dimethyl-7-oxo-3-phenyl-7H-furo[3,2-g]chromen-6-yl)acetic acid]: the Ki at hCA I was over 100 µM; at hCA II, over 100 µM; on hCA IX, 3.18 µM; on hCA XII it was 3.38 µM.

Take `Cc1c(CC(=O)O)c(=O)oc2c(C)c3occ(-c4ccc(Cl)cc4)c3cc12` [EMAC10164j, 2-(3-(4-Chlorophenyl)-5,9-dimethyl-7-oxo-7H-furo[3,2-g]chromen-6-yl)acetic acid]: the Ki on hCA I is over 100 µM; on hCA II it was over 100 µM; at hCA IX it was 3.22 µM; at hCA XII, 7.86 µM.

`COc1cccc(-c2coc3c(C)c4oc(=O)c(CC(=O)O)c(C)c4cc23)c1` [EMAC10164k, 2-(3-(3-Methoxyphenyl)-5,9-dimethyl-7-oxo-7H-furo[3,2-g]chromen-6-yl)acetic acid]: the Ki is over 100 µM on hCA I, over 100 µM at hCA II, 4.16 µM at hCA IX and 3.66 µM at hCA XII.
